Measurements published in patent publication US20040259926A1, “3-Aryloxy and 3-heteroaryloxy substituted benzo[b]thiophenes as therapeutic agents” (priority 2003, published 2004).

These molecules were tested against T1, PI3Kγ (recombinant p101/p110γ protein) (Homo sapiens, UniProt P48736) (assay: PI3Kγ In Vitro Kinase Assay). Settings: purified recombinant p101/p110γ with G protein β1/γ2 subunits; 20 μM ATP, [γ-32P-ATP]; 25 μM PIP2 lipid micelles; 20 minutes at room temperature.
T1 construct: HA; made in house; host or cells: Spodoptera frugiperda (Sf9) cells, baculovirus co-infection
Format: biochemical
Method in brief: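 Baculovirus/Sf9-expressed p101/p110γ (~2.7 nM) with Gβ1/γ2 (~57.7 nM) in HEPES/NaCl/EGTA/DTT buffer; 20 μM ATP plus [γ-32P]ATP, micelles of 25 μM PIP2, 300 μM PE, 10 mM MgCl2. Reactions ran 20 minutes at room temperature; radiolabelled PIP3 captured on glass-fibre filters and counted for IC50.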

T1 sequence (P48736 whole entry, species assumed): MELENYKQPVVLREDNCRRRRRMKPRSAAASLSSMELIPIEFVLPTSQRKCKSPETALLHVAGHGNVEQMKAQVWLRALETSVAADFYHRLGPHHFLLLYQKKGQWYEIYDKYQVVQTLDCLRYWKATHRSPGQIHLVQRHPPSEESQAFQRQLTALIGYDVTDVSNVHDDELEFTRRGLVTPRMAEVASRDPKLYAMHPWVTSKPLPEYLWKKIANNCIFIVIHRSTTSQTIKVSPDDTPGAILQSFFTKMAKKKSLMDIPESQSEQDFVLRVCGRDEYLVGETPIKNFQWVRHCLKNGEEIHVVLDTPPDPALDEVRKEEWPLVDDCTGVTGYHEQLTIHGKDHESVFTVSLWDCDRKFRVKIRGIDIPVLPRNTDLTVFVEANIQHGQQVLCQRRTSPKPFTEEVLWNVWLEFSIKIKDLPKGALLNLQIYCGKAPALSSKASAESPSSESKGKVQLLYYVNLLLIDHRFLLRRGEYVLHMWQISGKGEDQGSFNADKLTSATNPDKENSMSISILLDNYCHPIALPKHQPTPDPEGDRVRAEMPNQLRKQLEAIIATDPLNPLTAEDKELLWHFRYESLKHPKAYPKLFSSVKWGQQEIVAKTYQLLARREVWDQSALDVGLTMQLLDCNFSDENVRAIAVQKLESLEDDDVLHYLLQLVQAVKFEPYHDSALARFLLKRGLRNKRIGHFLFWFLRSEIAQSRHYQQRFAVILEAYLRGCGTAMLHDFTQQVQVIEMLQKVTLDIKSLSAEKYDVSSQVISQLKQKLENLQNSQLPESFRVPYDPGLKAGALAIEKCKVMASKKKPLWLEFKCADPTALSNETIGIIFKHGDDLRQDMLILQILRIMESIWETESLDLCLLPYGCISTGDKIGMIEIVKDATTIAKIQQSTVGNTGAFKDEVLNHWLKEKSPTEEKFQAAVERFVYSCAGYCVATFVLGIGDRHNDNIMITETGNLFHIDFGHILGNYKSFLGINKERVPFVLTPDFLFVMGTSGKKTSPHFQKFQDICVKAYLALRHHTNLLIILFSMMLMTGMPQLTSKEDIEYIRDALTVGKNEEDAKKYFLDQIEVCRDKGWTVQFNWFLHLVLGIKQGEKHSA
T1 sequence (Q8WYR1 whole entry partner, species assumed): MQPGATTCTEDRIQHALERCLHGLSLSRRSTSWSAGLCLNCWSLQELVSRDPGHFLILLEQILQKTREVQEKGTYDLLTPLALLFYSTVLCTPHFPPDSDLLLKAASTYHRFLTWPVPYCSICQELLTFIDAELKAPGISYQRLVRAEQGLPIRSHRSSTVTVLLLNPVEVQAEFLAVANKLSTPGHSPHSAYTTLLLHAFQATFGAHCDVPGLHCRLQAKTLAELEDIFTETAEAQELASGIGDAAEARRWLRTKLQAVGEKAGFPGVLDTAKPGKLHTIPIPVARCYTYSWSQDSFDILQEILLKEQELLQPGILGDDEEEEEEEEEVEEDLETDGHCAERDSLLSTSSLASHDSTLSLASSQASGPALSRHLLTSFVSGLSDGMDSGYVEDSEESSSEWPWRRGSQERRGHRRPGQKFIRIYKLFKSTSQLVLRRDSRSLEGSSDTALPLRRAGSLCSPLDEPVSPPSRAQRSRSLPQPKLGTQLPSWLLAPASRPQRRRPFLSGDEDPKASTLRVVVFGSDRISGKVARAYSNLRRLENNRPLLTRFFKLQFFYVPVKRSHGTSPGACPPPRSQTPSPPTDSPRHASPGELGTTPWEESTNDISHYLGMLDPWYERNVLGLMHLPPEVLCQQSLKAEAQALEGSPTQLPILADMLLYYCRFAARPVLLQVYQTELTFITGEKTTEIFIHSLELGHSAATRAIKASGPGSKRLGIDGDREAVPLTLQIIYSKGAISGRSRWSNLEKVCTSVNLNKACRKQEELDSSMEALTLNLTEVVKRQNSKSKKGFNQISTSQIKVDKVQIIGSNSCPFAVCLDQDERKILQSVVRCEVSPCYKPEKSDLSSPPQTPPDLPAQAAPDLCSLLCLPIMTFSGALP

IC50 [nM] | Molecule
125 | COc1cc2c(Oc3ccc(C4(C)CCC(C)CC4)cc3)c(C(=O)Nc3nn[nH]n3)sc2cc1C (stereo not drawn) [Example B.27, 3-[4-(1,4-Dimethyl-cyclohexyl)-phenoxy]-5-methoxy-6-methyl-benzo[b]thiophene-2-carboxylic acid (2H-tetrazol-5-yl)-amide]
22 | COc1cc2c(Oc3ccc(C4CCC(=O)CC4)cc3)c(C(=O)Nc3nn[nH]n3)sc2cc1C [Example B.60, 5-Methoxy-6-methyl-3-[4-(4-oxo-cyclohexyl)-phenoxy]-benzo[b]thiophene-2-carboxylic acid (2H-tetrazol-5-yl)-amide]
275 | COc1cc2sc(C(=O)Nc3nn[nH]n3)c(Oc3cccc(C#N)c3)c2cc1C [Example D.3, 3-(3-Cyano-phenoxy)-6-methoxy-5-methyl-benzo[b]thiophene-2-carboxylic acid (2H-tetrazol-5-yl)-amide]
17 | COc1cc2c(Oc3ccc(OC(F)(F)F)cc3)c(C(=O)Nc3nn[nH]n3)sc2cc1C [Example B.45, 5-Methoxy-6-methyl-3-(4-trifluoromethoxy-phenoxy)-benzo[b]thiophene-2-carboxylic acid (2H-tetrazol-5-yl)-amide]
51 | COc1cc2c(Oc3ccc(OC4CCC(C)C4)cc3)c(C(=O)Nc3nn[nH]n3)sc2cc1C (stereo not drawn) [Example B.50, 5-Methoxy-6-methyl-3-[4-(3-methyl-cyclopentyloxy)-phenoxy]-benzo[b]thiophene-2-carboxylic acid (2H-tetrazol-5-yl)-amide]
9 | COc1cc2c(Oc3ccc(C4(C(N)=O)CCCC4)cc3)c(C(=O)Nc3nn[nH]n3)sc2cc1C [Example B.64, 3-[4-(1-carbamoyl-cyclopentyl)-phenoxy]-5-methoxy-6-methyl-benzo[b]thiophene-2-carboxylic acid (2H-tetrazol-5-yl)-amide]
77 | COc1cc2c(Oc3ccc(-c4ccccc4)cc3)c(C(=O)Nc3nn[nH]n3)sc2cc1C [Example B.20, 3-(Biphenyl-4-yloxy)-5-methoxy-6-methyl-benzo[b]thiophene-2-carboxylic acid (2H-tetrazol-5-yl)-amide]
890 | COc1cc2sc(C(=O)Nc3nn[nH]n3)c(Oc3ccc(C(C)(C)C)cc3)c2cc1C [Example D.6, 3-(4-tert-Butyl-phenoxy)-6-methoxy-5-methyl-benzo[b]thiophene-2-carboxylic acid (2H-tetrazol-5-yl)-amide]
4 | COc1cc2c(Oc3ccc(OC4CCCC4)cc3)c(C(=O)Nc3nn[nH]n3)sc2cc1C [Example B.17, 3-(4-Cyclopentyloxy-phenoxy)-5-methoxy-6-methyl-benzo[b]thiophene-2-carboxylic acid (2H-tetrazol-5-yl)-amide]
255 | COc1cc2sc(C(=O)Nc3nnn[nH]3)c(OCc3cccc4c3CCCC4)c2cc1OC [Example C.24, 5,6-Dimethoxy-3-(5,6,7,8-tetrahydro-naphthalen-1-ylmethoxy)-benzo[b]thiophene-2-carboxylic acid (1H-tetrazol-5-yl)-amide]
185 | COc1cc2sc(C(=O)Nc3nnn[nH]3)c(OCc3ccc4c(c3)CCCC4)c2cc1OC [Example C.28, 5,6-Dimethoxy-3-(5,6,7,8-tetrahydro-naphthalen-2-ylmethoxy)-benzo[b]thiophene-2-carboxylic acid (1H-tetrazol-5-yl)-amide]
43 | COc1cc2c(Oc3ccc(OC4CCCCCC4)cc3)c(C(=O)Nc3nn[nH]n3)sc2cc1C [Example B.21, 3-(4-Cycloheptyloxy-phenoxy)-5-methoxy-6-methyl-benzo[b]thiophene-2-carboxylic acid (2H-tetrazol-5-yl)-amide]
134 | COc1cc2sc(C(=O)Nc3nnn[nH]3)c(OCc3ccc(C4CCCCC4)cc3)c2cc1OC [Example C.30, 3-(4-Cyclohexyl-benzyloxy)-5,6-dimethoxy-benzo[b]thiophene-2-carboxylic acid (1H-tetrazol-5-yl)-amide]
17 | COc1cc2c(Oc3ccc(C(C)C)cc3)c(C(=O)Nc3nn[nH]n3)sc2cc1C [Example B.12, 3-(4-Isopropyl-phenoxy)-5-methoxy-6-methyl-benzo[b]thiophene-2-carboxylic acid (2H-tetrazol-5-yl)-amide]
410 | COc1cc2sc(C(=O)Nc3nnn[nH]3)c(OCc3ccccc3OCC3CCCCC3)c2cc1OC [Example C.20, 3-(2-Cyclohexylmethoxy-benzyloxy)-5,6-dimethoxy-benzo[b]thiophene-2-carboxylic acid (1H-tetrazol-5-yl)-amide]
6 | COc1cc2c(Oc3ccc(C4CCCCC4)cc3C#N)c(C(=O)Nc3nn[nH]n3)sc2cc1C [Example B.75, 3-(2-Cyano-4-cyclohexyl-phenoxy)-5-methoxy-6-methyl-benzo[b]thiophene-2-carboxylic acid (2H-tetrazol-5-yl)-amide]

IC50 [nM] | Molecule
76 | COc1cc2c(Oc3ccc(OCc4ccccc4)cc3)c(C(=O)Nc3nn[nH]n3)sc2cc1C [Example B.15, 3-(4-Benzyloxy-phenoxy)-5-methoxy-6-methyl-benzo[b]thiophene-2-carboxylic acid (2H-tetrazol-5-yl)-amide]
145 | COc1cc2sc(C(=O)Nc3nnn[nH]3)c(O[C@@H](C)Cc3ccccc3)c2cc1OC [Example C.29, 5,6-Dimethoxy-3-((S)-1-methyl-2-phenyl-ethoxy)-benzo[b]thiophene-2-carboxylic acid (1H-tetrazol-5-yl)-amide]
120 | COc1cc2c(Oc3cccnc3)c(C(=O)Nc3nn[nH]n3)sc2cc1C [Example B.46, 5-Methoxy-6-methyl-3-(pyridin-3-yloxy)-benzo[b]thiophene-2-carboxylic acid (2H-tetrazol-5-yl)-amide]
1930 | COc1cc2c(Oc3ccc(C4CCCCC4)cc3)c(C(=O)Nc3nnn(C)n3)sc2cc1C [Example K.1, 3-(4-Cyclohexyl-phenoxy)-5-methoxy-6-methyl-benzo[b]thiophene-2-carboxylic acid (2-methyl-2H-tetrazol-5-yl)-amide]
58 | COc1cc2c(Oc3ccc(S(C)(=O)=O)cc3)c(C(=O)Nc3nn[nH]n3)sc2cc1C [Example B.47, 3-(4-Methanesulfonyl-phenoxy)-5-methoxy-6-methyl-benzo[b]thiophene-2-carboxylic acid (2H-tetrazol-5-yl)-amide]
290 | COc1cc2sc(C(=O)Nc3nnn[nH]3)c(OCc3cccc4ccccc34)c2cc1OC [Example C.22, 5,6-Dimethoxy-3-(naphthalen-1-ylmethoxy)-benzo[b]thiophene-2-carboxylic acid (1H-tetrazol-5-yl)-amide]
495 | COc1ccc2sc(C(=O)Nc3nn[nH]n3)c(Oc3cccc(N4CCOCC4)c3)c2c1 [Example A.12, 5-Methoxy-3-(3-morpholin-4-yl-phenoxy)-benzo[b]thiophene-2-carboxylic acid (2H-tetrazol-5-yl)-amide]
25 | COc1cc2c(Oc3ccc(CCSC(C)(C)C)cc3)c(C(=O)Nc3nn[nH]n3)sc2cc1C [Example B.25, 3-[4-(2-tert-Butylsulfanyl-ethyl)-phenoxy)-5-methoxy-6-methyl-benzo[b]thiophene-2-carboxylic acid (2H-tetrazol-5-yl)-amide]
56 | COc1cc2c(Oc3ccc([N+](=O)[O-])cc3)c(C(=O)Nc3nn[nH]n3)sc2cc1C [Example B.43, 5-Methoxy-6-methyl-3-(4-nitro-phenoxy)-benzo[b]thiophene-2-carboxylic acid (2H-tetrazol-5-yl)-amide]
63 | COc1cc2c(Oc3cccc(C4CCCCC4)c3)c(C(=O)Nc3nn[nH]n3)sc2cc1C [Example B.9, 3-(3-Cyclohexyl-phenoxy)-5-methoxy-6-methyl-benzo[b]thiophene-2-carboxylic acid (2H-tetrazol-5-yl)-amide]
99 | COc1ccc2sc(C(=O)Nc3nn[nH]n3)c(Oc3cccc(C(C)C)c3)c2c1 [Example A.13, 3-(3-Isopropyl-phenoxy)-5-Methoxy-benzo[b]thiophene-2-carboxylic acid (2H-tetrazol-5-yl)-amide]
215 | COc1ccc2sc(C(=O)Nc3nn[nH]n3)c(Oc3cccc(N(C)C)c3)c2c1 [Example A.8, 3-(3-dimethylamino-phenoxy)-5-methoxy-benzo[b]thiophene-2-carboxylic acid (2H-tetrazol-5-yl)-amide]
115 | CCOc1cc2c(Oc3ccc(C4CCCCC4)cc3)c(C(=O)Nc3nnn[nH]3)sc2cc1C [Example L.1, 3-(4-cyclohexyl-phenoxy)-5-ethoxy-6-methyl-benzo[b]thiophene-2-carboxylic acid (1H-tetrazol-5-yl)-amide]
126 | COc1cc2c(Oc3ccc(OCC4CCCCC4)cc3)c(C(=O)Nc3nn[nH]n3)sc2cc1C [Example B.16, 3-(4-Cyclohexylmethoxy-phenoxy)-5-methoxy-6-methyl-benzo[b]thiophene-2-carboxylic acid (2H-tetrazol-5-yl)-amide]
42 | COc1cc2sc(C(=O)Nc3nnn[nH]3)c(OC[C@H](C)c3ccccc3)c2cc1OC [Example C.35, 5,6-Dimethoxy-3-((R)-2-phenyl-propoxy)-benzo[b]thiophene-2-carboxylic acid (1H-tetrazol-5-yl)-amide]
8 | COc1cc2c(Oc3ccc(C4CCC5(CC4)OCCO5)cc3)c(C(=O)Nc3nn[nH]n3)sc2cc1C [Example B.68, 3-[4-(1,4-Dioxa-spiro[4.5]dec-8-yl)-phenoxy]-5-methoxy-6-methyl-benzo[b]thiophene-2-carboxylic acid (2H-tetrazol-5-yl)-amide]

Molecule | IC50 [nM]
3-(3,4-Di-tert-butyl-phenoxy)-5-methoxy-6-methyl-benzo[b]thiophene-2-carboxylic acid (2H-tetrazol-5-yl)-amide [Example B.23] | 2340
